The source of these data is patent US12350270B2, “Antimalarial agents” (Merck Sharp & Dohme LLC, priority 2019, dated 2025).

In this assay the test system is parasites (ring stage, in human red blood cell culture). The assay can be described thus: Parasite LDH growth assay (antiparasite potency, Parasite Assay). It counts as cell-based, Plasmodium falciparum. The settings on record: Plasmodium falciparum, Erythrocyte, 72 h, 0.7% rings, 2% haematocrit, 72 hours at 37° C., LDH readout of parasite growth. An outline of the steps: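 Ring-stage parasites at 0.7% parasitemia and 2% haematocrit, in RPMI-Hepes/bicarbonate with 5% heat-inactivated human serum and 0.5% albumax, were added to compound-containing medium. Cultures grew 72 h at 37 °C in gassed humidified boxes. Plates were then frozen overnight at −80 °C, thawed 4 h, and growth was measured by LDH assay.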
For orientation: EC50 means the concentration at which the effect is half-maximal. A higher EC50 goes with a need for much substance. For the molecule `CC[C@]1(C)CC(=O)N([C@H]2c3cc(C(=O)N[C@@H]4c5ccccc5C[C@@]4(C)O)ccc3OC[C@@H]2COC)C(=N)N1` [Example 202, (3S,4R)-4-[(4R)-4-ethyl-2-imino-4-methyl-6-oxo-hexahydropyrimidin-1-yl]-N-[(1R,2R)-2-hydroxy-2-methyl-indan-1-yl]-3-(methoxymethyl)chromane-6-carboxamide], a half-maximal effect (EC50) was put at 0.8 nM.
In turn, `CCC1(CC)CC(=O)N([C@H]2C[C@@H](OC)c3ccc(C(=O)N[C@@H]4c5ccccc5OC[C@@]4(C)O)cc32)C(=N)N1` [Example 204, (1R,3S)-3-(4,4-diethyl-2-imino-6-oxo-hexahydropyrimidin-1-yl)-N-[(3S,4R)-3-hydroxy-3-methyl-chroman-4-yl]-1-methoxy-indane-5-carboxamide] registered an EC50 of 247 nM.
Take `CCC1(CC)CC(=O)N([C@@H]2C[C@H](OC)c3ccc(C(=O)N[C@@H]4c5ccccc5OC[C@@]4(C)O)cc32)C(=N)N1` [Example 205, (1S,3R)-3-(4,4-diethyl-2-imino-6-oxo-hexahydropyrimidin-1-yl)-N-[(3S,4R)-3-hydroxy-3-methyl-chroman-4-yl]-1-methoxy-indane-5-carboxamide]: the EC50 amounted to 2.1 nM.
In turn, `COCC1(C)CC(N2C(=N)NC(C)(C)CC2=O)c2cc(C(=O)N[C@@H]3c4ccccc4C[C@]3(C)O)ccc2O1` (stereo partly drawn) [Example 206, N-[(1R,2S)-2-hydroxy-2-methyl-indan-1-yl]-4-(2-imino-4,4-dimethyl-6-oxo-hexahydropyrimidin-1-yl)-2-(methoxymethyl)-2-methyl-chromane-6-carboxamide] returned an EC50 of 66 nM.
The figure for `CCC1(CC)CC(=O)N(C2c3cc(C(=O)N[C@H]4CC(C)(C)Oc5ccccc54)ccc3OCC2O)C(=N)N1` (stereo partly drawn) [Example 207, 4-(4,4-diethyl-2-imino-6-oxo-hexahydropyrimidin-1-yl)-N-[(4S)-2,2-dimethylchroman-4-yl]-3-hydroxy-chromane-6-carboxamide] is 22 nM; for `CCC1(CC)CC(=O)N(C2c3cc(C(=O)N[C@@H]4c5ccccc5C[C@H]4O)ccc3OCC2(C)OC)C(=N)N1` (stereo partly drawn) [Example 208, 4-(4,4-diethyl-2-imino-6-oxo-hexahydropyrimidin-1-yl)-N-[(1R,2R)-2-hydroxyindan-1-yl]-3-methoxy-3-methyl-chromane-6-carboxamide] it is 3.7 nM.
The result for `CCC1(CC)CC(=O)N(C2CC(C)Oc3ccc(C(=O)N[C@@H]4c5ccccc5OC[C@@]4(C)O)cc32)C(=N)N1` (stereo partly drawn) [Example 209, 4-(4,4-diethyl-2-imino-6-oxo-hexahydropyrimidin-1-yl)-N-[(3S,4R)-3-hydroxy-3-methyl-chroman-4-yl]-2-methyl-chromane-6-carboxamide] reads 7.9 nM.
As to `CC[C@]1(C)CC(=O)N(C2CC(C)Oc3ccc(C(=O)N[C@@H]4c5ccccc5OC(C)(C)[C@H]4O)cc32)C(=N)N1` (stereo partly drawn) [Example 210, 4-[(4R)-4-ethyl-2-imino-4-methyl-6-oxo-hexahydropyrimidin-1-yl]-N-[(3S,4R)-3-hydroxy-2,2-dimethyl-chroman-4-yl]-2-methyl-chromane-6-carboxamide], a half-maximal response (EC50) required 195 nM.
As to `CCC1(CC)CC(=O)N([C@@H]2CCCOc3ccc(C(=O)N[C@@H]4c5ccccc5OC[C@@]4(C)O)cc32)C(=N)N1` [Example 211, (5R)-5-(4,4-diethyl-2-imino-6-oxo-hexahydropyrimidin-1-yl)-N-[(3S,4R)-3-hydroxy-3-methyl-chroman-4-yl]-2,3,4,5-tetrahydro-1-benzoxepine-7-carboxamide], a half-maximal effect (EC50) was put at 8.9 nM.
`CCC1(CC)CC(=O)N(C2c3cc(C(=O)N[C@@H]4c5ccccc5C[C@@]4(C)O)ccc3OCC2OC)C(=N)N1` (stereo partly drawn) [Example 212, 4-(4,4-diethyl-2-imino-6-oxo-hexahydropyrimidin-1-yl)-N-[(1R,2R)-2-hydroxy-2-methyl-indan-1-yl]-3-methoxy-chromane-6-carboxamide] came in with an EC50 of 6.5 nM.
For the molecule `CCC1(CC)CC(=O)N(C2c3cc(C(=O)N[C@@H]4c5ccccc5C[C@]4(C)O)ccc3OCC2OC)C(=N)N1` (stereo partly drawn) [Example 213, 4-(4,4-diethyl-2-imino-6-oxo-hexahydropyrimidin-1-yl)-N-[(1R,2S)-2-hydroxy-2-methyl-indan-1-yl]-3-methoxy-chromane-6-carboxamide], the response was half-maximal at 9 nM (EC50).
On to `CCC1(CC)CC(=O)N([C@H]2c3cc(C(=O)N[C@@H]4c5ccccc5C[C@H]4O)ccc3OC[C@H]2COC)C(=N)N1` [Example 215, (3R,4R)-4-(4,4-diethyl-2-imino-6-oxo-hexahydropyrimidin-1-yl)-N-[(1R,2R)-2-hydroxyindan-1-yl]-3-(methoxymethyl)chromane-6-carboxamide], for which the EC50 is 4.2 nM.
Turning to `CCC1(CC)CC(=O)N([C@H]2c3cc(C(=O)N[C@@H]4c5ccccc5C[C@H]4O)ccc3OC[C@@H]2COC)C(=N)N1` [Example 216, (3S,4R)-4-(4,4-diethyl-2-imino-6-oxo-hexahydropyrimidin-1-yl)-N-[(1R,2R)-2-hydroxyindan-1-yl]-3-(methoxymethyl)chromane-6-carboxamide], a half-maximal effect (EC50) was put at 2.7 nM.
With `COC1COc2ccc(C(=O)N[C@@H]3c4ccccc4OC(C)(C)[C@H]3O)cc2C1N1C(=N)NC(C)(C)CC1=O` (stereo partly drawn) [Example 217, N-[(3S,4R)-3-hydroxy-2,2-dimethyl-chroman-4-yl]-4-(2-imino-4,4-dimethyl-6-oxo-hexahydropyrimidin-1-yl)-3-methoxy-chromane-6-carboxamide], it took 4.9 nM to reach a half-maximal effect (EC50).
In turn, `CC[C@]1(C)CC(=O)N(C2c3cc(C(=O)N[C@@H]4c5ccccc5OC[C@@]4(C)O)ccc3OCC2OC)C(=N)N1` (stereo partly drawn) [Example 218, 4-[(4R)-4-ethyl-2-imino-4-methyl-6-oxo-hexahydropyrimidin-1-yl]-N-[(3S,4R)-3-hydroxy-3-methyl-chroman-4-yl]-3-methoxy-chromane-6-carboxamide] displayed an EC50 of 64 nM.
The figure for `COCC1(C)Oc2ccc(C(=O)N[C@@H]3c4ccccc4OC[C@@]3(C)O)cc2C1N1C(=N)NC(C)(C)CC1=O` (stereo partly drawn) [Example 219, N-[(3S,4R)-3-hydroxy-3-methyl-chroman-4-yl]-3-(2-imino-4,4-dimethyl-6-oxo-hexahydropyrimidin-1-yl)-2-(methoxymethyl)-2-methyl-3H-benzofuran-5-carboxamide] is 208 nM; for `CC1(C)CC(=O)N([C@@H]2CCS(=O)(=O)c3ccc(C(=O)N[C@H]4CC(C)(C)Oc5ccccc54)cc32)C(=N)N1` [Example 220, (4R)-N-[(4S)-2,2-dimethylchroman-4-yl]-4-(2-imino-4,4-dimethyl-6-oxo-hexahydropyrimidin-1-yl)-1,1-dioxo-3,4-dihydro-2H-thiochromene-6-carboxamide] it is 2.9 nM; for `CC1(C)CC(=O)N([C@H]2CCS(=O)(=O)c3ccc(C(=O)N[C@H]4CC(C)(C)Oc5ccccc54)cc32)C(=N)N1` [Example 221, (4S)-N-[(4S)-2,2-dimethylchroman-4-yl]-4-(2-imino-4,4-dimethyl-6-oxo-hexahydropyrimidin-1-yl)-1,1-dioxo-3,4-dihydro-2H-thiochromene-6-carboxamide] it is 190 nM.
Molecule `CCC1(CC)CC(=O)N([C@@H]2CCS(=O)(=O)c3ccc(C(=O)N[C@@H]4c5ccccc5C[C@H]4O)cc32)C(=N)N1` [Example 222, (4R)-4-(4,4-diethyl-2-imino-6-oxo-hexahydropyrimidin-1-yl)-N-[(1R,2R)-2-hydroxyindan-1-yl]-1,1-dioxo-3,4-dihydro-2H-thiochromene-6-carboxamide] came in with an EC50 of 15.6 nM.
The result for `CCC1(CC)CC(=O)N([C@H]2CCS(=O)(=O)c3ccc(C(=O)N[C@@H]4c5ccccc5C[C@H]4O)cc32)C(=N)N1` [Example 223, (4S)-4-(4,4-diethyl-2-imino-6-oxo-hexahydropyrimidin-1-yl)-N-[(1R,2R)-2-hydroxyindan-1-yl]-1,1-dioxo-3,4-dihydro-2H-thiochromene-6-carboxamide] reads 300 nM.
In turn, `CC[C@]1(C)CC(=O)N([C@@H]2CCOc3ccc(C(=O)N[C@@H]4c5cc(F)ccc5OC(C)(C)[C@H]4O)cc32)C(=N)N1` [Example 224, (4R)-4-[(4R)-4-ethyl-2-imino-4-methyl-6-oxo-hexahydropyrimidin-1-yl]-N-[(3S,4R)-6-fluoro-3-hydroxy-2,2-dimethyl-chroman-4-yl]chromane-6-carboxamide] gave an EC50 of 0.3 nM.
In turn, `CC[C@@]1(C)CC(=O)N([C@@H]2CCOc3ccc(C(=O)N[C@@H]4c5cc(F)ccc5OC(C)(C)[C@H]4O)cc32)C(=N)N1` [Example 225, (4R)-4-[(4S)-4-ethyl-2-imino-4-methyl-6-oxo-hexahydropyrimidin-1-yl]-N-[(3S,4R)-6-fluoro-3-hydroxy-2,2-dimethyl-chroman-4-yl]chromane-6-carboxamide] returned an EC50 of 0.8 nM.
Regarding `CCC1(CC)CC(=O)N([C@@H]2CCOc3ccc(C(=O)NC4c5ccccc5C(F)(F)C4(C)C)cc32)C(=N)N1` (stereo partly drawn) [Example 227, (4R)-4-(4,4-diethyl-2-imino-6-oxo-hexahydropyrimidin-1-yl)-N-(3,3-difluoro-2,2-dimethyl-indan-1-yl)chromane-6-carboxamide], the midpoint of the response, the EC50, lay at 1.3 nM.
Turning to `CC1(C)CC(=O)N(C2CCS(=O)(=O)c3ccc(C(=O)N[C@@H]4c5ccccc5OC[C@@]4(C)O)cc32)C(=N)N1` (stereo partly drawn) [Example 228, N-[(3S,4R)-3-hydroxy-3-methyl-chroman-4-yl]-4-(2-imino-4,4-dimethyl-6-oxo-hexahydropyrimidin-1-yl)-1,1-dioxo-3,4-dihydro-2H-thiochromene-6-carboxamide], the EC50 turned out to be 282 nM.
The result for `CC1(C)CC(=O)N(C2CCS(=O)(=O)c3ccc(C(=O)N[C@@H]4c5ccccc5OC[C@]4(C)O)cc32)C(=N)N1` (stereo partly drawn) [Example 229, N-[(3R,4R)-3-hydroxy-3-methyl-chroman-4-yl]-4-(2-imino-4,4-dimethyl-6-oxo-hexahydropyrimidin-1-yl)-1,1-dioxo-3,4-dihydro-2H-thiochromene-6-carboxamide] reads 59.3 nM.
